Data taken from patent US6703347B2, “Isothiazole derivatives and their use as pesticides” (Syngenta Limited, priority 2000, dated 2004).

Legend:
[1] = test system: two-spotted spider mites (Tetranychus urticae); settings: liquid composition containing 500 ppm by weight of compound
[2] = test system: Plasmopara viticola (PLASVI); experiment: foliar fungicide test on vines (Example 19); type: in vivo; settings: 100 ppm foliar (Prot) application on vines; inoculated 6 hours or one day after application
[3] = test system: peach potato aphids (Myzus persicae); settings: 500 ppm by weight; infested Chinese cabbage leaves sprayed; mortality assessed after three days
[4] = test system: Blumeria graminis f.sp. tritici (ERYSGT); experiment: foliar fungicide test on wheat (Example 19); type: in vivo; settings: 100 ppm foliar (Prot) application on wheat; inoculated 6 hours or one day after application
[5] = test system: Puccinia recondita (PUCCRT); experiment: foliar fungicide test on wheat (Example 19); type: in vivo; settings: 100 ppm foliar (Prot) application on wheat; inoculated 6 hours or one day after application
[6] = test system: diamond back moth (Plutella xylostella); experiment: pesticidal test against diamond back moth; settings: liquid composition containing 500 ppm by weight of compound
[7] = test system: corn root worm (Diabrotica balteata); experiment: pesticidal test against corn root worm; settings: liquid composition containing 500 ppm by weight of compound
[8] = test system: fruit flies (Drosophila melanogaster); experiment: pesticidal test against fruit flies; settings: liquid composition containing 500 ppm by weight of compound

Row | melting point | Structure (SMILES) | mortality (score) Tu [1] | PLASVI Prot, PRCO (Percentage Reduction from Control) [2] | mortality (score) Mp [3] | ERYSGT Prot, PRCO (Percentage Reduction from Control) [4] | PUCCRT Prot, PRCO (Percentage Reduction from Control) [5] | mortality (score) Px [6] | mortality (score) Db [7] | mortality (score) Dm [8]
1 | 144 to 145 °C | Cc1nsc(NC(=O)Cc2ccc3oc(CC(C)(C)C)nc3c2)c1Cl |  |  |  |  |  |  |  | 
2 |  | Cc1nsc(NC(=O)C(F)c2ccc3oc(CC(C)(C)C)nc3c2)c1Cl (centres unmarked) [Table 5 Compound 7] | 9 (9 indicates 80-100% mortality) | 98 | 9 (9 indicates 80-100% mortality) | 100 | 96 |  |  | 
3 |  | Cc1nsc(NC(=O)C(=CO)c2ccc3oc(CC(C)(C)C)nc3c2)c1Cl [Table 12 Compound 7] | 9 (9 indicates 80-100% mortality) | 100 | 0 (represents less than 40% mortality) | 78 | 97 | 9 (9 indicates 80-100% mortality) | 9 (9 indicates 80-100% mortality) | 0 (represents less than 40% mortality)
